Measurements as given in patent publication US20070134744A1, “Epothilone resistant cell lines” (priority 2000, published 2007).

Experiments:
EA40 cells = assay: MTS growth inhibition assay; format: cell-based; details: EA40 cells, MTS, 72 hours drug; Table 1
Method: Growth inhibition may be analyzed using conventional methods, for example a MTS assay (PROMEGA, Wis.) may be used. In this assay approximately 4000 cells per well are seeded in 96 well plates in MEM supplemented with 10% fetal calf serum and incubated at 37° C. in 5.0% CO2. After 24 hours, dilutions of drug (concentration range used is between 1 nM and 1000 nM) are added and cells are allowed to incubate with drug for an additional 72 hours. The MTS reagent mixed with PMS (MTS:PMS 20:1 according to manufacturer's instructions) is then added and absorbance quantitated using a Thermomax microplate reader system according to conventional methods (Molecular Devices, Sunnyvale, Calif.). […] Six assays per drug per plate are performed. […]
As such, epothilone resistant cells would have some degree of cross-resistance to other P-gp substrates that could be reversed by P-gp inhibitors. To investigate this possibility, the cytotoxicity of the P-gp substrates, vincristine, doxorubicine and vinblastine is determined against epothilone A resistant cells using the MTS assay. […] When EA20 and resistant MDA/T0.3 cells are incubated with TAXOL® or epothilone A in the presence of [3′-Desoxy-3′-oxo-MeBmt]^1-[Val]^2-Ciclosporin (PSC-833; a P-gp inhibitor which is disclosed in U.S. Pat. No. 5,525,590), the resistance of MDA/T0.3 cells to TAXOL® is reversed but no effect on the resistance of EA20 to epothilone A is observed.

297/C5/0 cells = format: cell-based, human; details: 297/C5/0 (EpoA selected), 72 hrs, average of three experiments
Method: (§1) Anti-proliferative assays are performed basically as described (Meyer et al., Int. J. Cancer 43:851 (1989)). Briefly, cells are seeded at 1.5×10^3 cells/well into 96-well microtiter plates and allowed to adhere by incubation overnight. Compounds are added in serial dilutions on day 1. The plates are then incubated for an additional 3 days, after which the cells are fixed with 3.3% v/v glutaraldehyde, washed with water and stained with 0.05% w/v methylene blue according to conventional methods. After washing, the dye is eluted with 3% HCl and the optical density measured at 665 nm with a SpectraMax Plus (Molecular Devices, Sunnyvale, Calif.) according to manufacturers instructions. IC50 values are determined by mathematical curve-fitting using the SoftPro2.6.1 program (Molecular Devices, Sunnyvale, Calif.) using the formula (OD treated−OD start)/(OD control−OD start)×100. […] IC50 determinations with the cell line 298/D4/40 are performed in the presence of 40 nM epothilone A.
(§2) Data in Table 4 are gathered according to the following methods: Cells (1×10^3) are seeded in 96-well plates and allowed to adhere for 24 hrs. Compounds are then added as two-fold serial dilutions and incubation continued for an additional 72 hrs. Cell numbers at the beginning and at the end of the experiment are estimated by methylene blue staining of cellular protein mass according to conventional methods. The net mass increase of vehicle-treated cells is set as 100% growth. The IC50 is determined as the drug concentration that leads to half-maximal growth inhibition compared to the control. The resistance factor (RF) for a particular drug is calculated by dividing the IC50 determined on the resistant cell line by that determined on the parental KB-31 cells. Data are presented as average±standard deviation (SD) of three separate experiments, except na=not applicable (n<3). Colchicine-selected KB-8511 cells overexpressing P-glycoprotein served as a reference for the classical multi-drug-resistant phenotype.

298/D4/40 cells = format: cell-based, human; details: 298/D4/40 (EpoA selected), 72 hrs, in the presence of 40 nM epothilone A
Method: as §1, §2

315/sc5.9 cells = format: cell-based, human
Method: as §1, §2

[1] = biological target: T1, tubulin in KB-31 cell lysates (Homo sapiens, UniProt P07437); assay: Cell-free tubulin polymerization assay; format: biochemical; details: KB-31 lysates, 5 min 37° C., 0-100 μM
T1 construct: decrease in the unpolymerized pool of tubulin in KB-31 cell lysates; endogenous in cells; host or cells: KB-31 human epidermoid carcinoma cells (intact cells or hypotonic lysates)
T1 sequence (P68363 whole entry): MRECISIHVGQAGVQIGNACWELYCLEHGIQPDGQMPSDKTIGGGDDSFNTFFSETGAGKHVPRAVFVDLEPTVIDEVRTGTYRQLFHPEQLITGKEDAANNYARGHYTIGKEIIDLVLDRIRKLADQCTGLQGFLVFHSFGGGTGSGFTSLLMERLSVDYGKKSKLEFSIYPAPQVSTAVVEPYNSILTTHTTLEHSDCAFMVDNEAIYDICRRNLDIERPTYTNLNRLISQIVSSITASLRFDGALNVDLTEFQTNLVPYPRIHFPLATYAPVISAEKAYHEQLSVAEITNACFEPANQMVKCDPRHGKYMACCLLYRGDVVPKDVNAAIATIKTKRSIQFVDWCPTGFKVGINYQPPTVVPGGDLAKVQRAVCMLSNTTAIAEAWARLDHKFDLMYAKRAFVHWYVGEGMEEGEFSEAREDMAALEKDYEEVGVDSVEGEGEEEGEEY
T1 sequence (P07437 whole entry): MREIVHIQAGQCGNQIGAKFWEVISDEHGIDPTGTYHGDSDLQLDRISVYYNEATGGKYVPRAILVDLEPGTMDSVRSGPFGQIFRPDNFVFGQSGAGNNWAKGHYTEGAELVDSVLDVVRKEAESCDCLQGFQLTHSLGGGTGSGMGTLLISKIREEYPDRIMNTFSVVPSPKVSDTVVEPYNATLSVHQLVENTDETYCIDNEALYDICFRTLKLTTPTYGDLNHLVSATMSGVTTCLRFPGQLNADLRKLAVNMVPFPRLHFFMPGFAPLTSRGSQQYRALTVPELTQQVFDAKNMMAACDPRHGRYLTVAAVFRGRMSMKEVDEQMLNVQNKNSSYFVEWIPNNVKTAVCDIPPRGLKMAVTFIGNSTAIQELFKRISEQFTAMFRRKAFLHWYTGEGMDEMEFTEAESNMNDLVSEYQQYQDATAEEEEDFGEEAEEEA
Method: (§3) For the assessment of drug effects on the ratio between unpolymerized and polymerized tubulin in a cell-free system, cells are lysed at the time of drug addition and processed as follows. Cells are seeded and incubated for 18-24 hrs as described above. One plate at a time is then transferred to a dimmed tissue-culture hood and cells are washed twice with 1 ml of room temperature PBS/O. After careful removal of remaining PBS/O, 200 μl of room-temperature HLB/A containing test substances at the desired concentration is added to the cells. Final vehicle concentration is 1%. The plates are wrapped in aluminum foil and incubated for 5 min at 37° C. Lysates are then transferred to eppendorf tubes, vortexed for 5 seconds, followed by centrifugation for 30 minutes at room-temperature in a table-top centrifuge at 12′000×g. Further processing of the samples is performed as described above.
(§4) However, it was not clear from this experiment whether the decrease in epothilone A-mediated tubulin polymerization is due to decreased drug uptake or a genuine defect in tubulin functionality. To address this question, cells are lysed before incubation with epothilone A. Specifically, KB-31, 297/C5/0 and 298/D4/40 cells (2×10^5) are separately seeded in 6-well plates and allowed to adhere for 24 hrs. Cells are then lysed in hypotonic buffer containing 0, 1, 10 or 100 μM epothilone A. Vehicle (DMSO) concentration was 1%. Following incubation for 5 min at 37° C., samples are centrifuged to separate soluble from polymerized tubulin and the levels of unpolymerized tubulin is assessed by Western blotting as described above.

[2] = biological target: T2, tubulin in 297/C5/0 cell lysates (Homo sapiens, UniProt P07437, T274P); assay: Cell-free tubulin polymerization assay; format: biochemical; details: 297/C5/0 lysates, 5 min 37° C., 0-100 μM, vs KB-31
T2 construct: endogenous in cells; host or cells: 297/C5/0 and 298/D4/40 sublines of KB-31 (intact cells or hypotonic lysates)
T2 sequence (P07437 whole entry T274P): as the sequence (P07437 whole entry) above, with T274P counted along it
T2 sequence (P68363 whole entry partner): as the sequence (P68363 whole entry) above
Method: as §3, §4

[3] = biological target: T3, tubulin in 298/D4/40 cell lysates (Homo sapiens, UniProt P07437, T274P); assay: Cell-free tubulin polymerization assay; format: biochemical; details: 298/D4/40 lysates, 5 min 37° C., 0-100 μM
T3 construct: endogenous in cells; host or cells: 297/C5/0 and 298/D4/40 sublines of KB-31 (intact cells or hypotonic lysates)
T3 sequence (P07437 whole entry T274P): as the sequence (P07437 whole entry) above, with T274P counted along it
T3 sequence (P68363 whole entry partner): as the sequence (P68363 whole entry) above
Method: as §3, §4

## C/C(=C\c1csc(C)n1)[C@@H]1C[C@@H]2O[C@@H]2CCC[C@H](C)[C@H](O)[C@@H](C)C(=O)C(C)(C)[C@@H](O)CC(=O)O1 [Epothilone A, epothilone A]
EA40 cells
  IC50: 36 ± 2 nM
297/C5/0 cells
  RF (resistance factor: IC50 resistant cell line / IC50 parental KB-31): 44.7
298/D4/40 cells
  RF (resistance factor: IC50 resistant cell line / IC50 parental KB-31): 71.4
315/sc5.9 cells; 315/sc5.9 (EpoB selected), 72 hrs, average of three experiments
  RF (resistance factor: IC50 resistant cell line / IC50 parental KB-31): 1.2
315/sc5.9 cells; 315/sc5.9 vs parental KB-31
  resistance profile in words: marginal cross-resistance
[1]
  unpolymerized tubulin in cell lysates: dose-dependent decrease in the unpolymerized pool of tubulin
[2]
  dose-response curve for unpolymerized tubulin in cell lysates: shifted to higher concentrations
[3]
  changes in unpolymerized tubulin in cell lysates: completely refractory
